Measurements published in US11725036B2, “Modified lipidated relaxin B chain peptides and their therapeutic use” (Sanofi, priority 2018, dated 2023).
Starred links: 1 amine or outer side, 2 acyl side, 3 side chain; linkers in the order of their positions; H or OH if unused. Non-standard residues stand in square brackets, D forms with d. Residues, ends and D or L forms follow the SMILES beside them. Groups on a side chain read outwards from the residue. *: point of attachment. X1 = CCCCCCCCCCCCCCCC(=O)N[C@@H](CCC(=O)N[C@@H](CCC(=O)N[C@@H](CCC(=O)NCCCOCCOCCOCCCNC(=O)CCC(=O)NCCCOCCOCCOCCCNC(=O)CCC(=O)NCCCOCCOCCOCCCN*)C(=O)O)C(=O)O)C(=O)O; Phe(4-F) = N[C@@H](Cc1ccc(F)cc1)C(=O)O; αMeF = C[C@](N)(Cc1ccccc1)C(=O)O; Suc = O=C(CCC(=O)[*:2])[*:1]; αMeK = C[C@](N)(CCCCN)C(=O)O; Aib = CC(C)(N)C(=O)O

Biological target: T1, RXFP1 (Homo sapiens, UniProt Q9HBX9)
T1 construct: OVCAR5 cells expressing endogenous RXFP1; endogenous in cells; host or cells: OVCAR5
T1 sequence (Q9HBX9 1-757): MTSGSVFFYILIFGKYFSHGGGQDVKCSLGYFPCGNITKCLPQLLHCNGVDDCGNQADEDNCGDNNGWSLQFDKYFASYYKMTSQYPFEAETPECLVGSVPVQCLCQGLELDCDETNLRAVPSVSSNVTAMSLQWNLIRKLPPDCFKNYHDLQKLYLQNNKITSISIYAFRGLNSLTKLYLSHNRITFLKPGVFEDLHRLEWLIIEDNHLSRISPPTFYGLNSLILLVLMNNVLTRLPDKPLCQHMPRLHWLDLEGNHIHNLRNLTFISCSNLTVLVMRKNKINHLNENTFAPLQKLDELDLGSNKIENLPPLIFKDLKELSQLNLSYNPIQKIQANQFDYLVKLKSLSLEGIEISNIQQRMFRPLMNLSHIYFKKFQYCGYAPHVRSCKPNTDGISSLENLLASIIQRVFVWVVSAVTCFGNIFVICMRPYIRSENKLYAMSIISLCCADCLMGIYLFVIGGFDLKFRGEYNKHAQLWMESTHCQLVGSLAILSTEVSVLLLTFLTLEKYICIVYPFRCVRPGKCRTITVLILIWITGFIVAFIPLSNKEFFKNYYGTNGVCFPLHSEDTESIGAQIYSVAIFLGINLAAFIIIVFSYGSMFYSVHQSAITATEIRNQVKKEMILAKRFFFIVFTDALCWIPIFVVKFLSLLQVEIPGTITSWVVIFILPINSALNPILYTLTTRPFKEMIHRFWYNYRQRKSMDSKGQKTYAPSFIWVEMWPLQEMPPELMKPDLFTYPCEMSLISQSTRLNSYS
Experiment: OVCAR5 cAMP assay (HTRF)
Type: cell-based
Conditions: for EC50: OVCAR 5 cells expressing endogenous RXFP1, cAMP readout; for Emax: OVCAR 5 cells, maximal cAMP relative to H2-relaxin
Outline: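 Endogenous RXFP1 in OVCAR5 cells, pretreated 40 min at 37° C with 1 mM IBMX, then exposed to increasing peptide concentrations in serum-free medium for 30 min at 37° C. cAMP read by HTRF; EC50 by variable-slope sigmoidal fit, Emax as % of H2-relaxin maximal cAMP in same run.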

EC50 [nM] | Emax [%] | Compound
0.1 | 97 | CCCCCCCCCCCCCCCC(=O)N[C@@H](CCC(=O)N[C@@H](CCC(=O)N[C@@H](CCC(=O)NCCCOCCOCCOCCCNC(=O)CCC(=O)NCCCOCCOCCOCCCNC(=O)CCC(=O)NCCCOCCOCCOCCCNC(=O)CCC(=O)NCCCC[C@H](NC(=O)CNC(=O)[C@H](CCC(=O)O)NC(=O)C(C)(C)NC(=O)C(C)(C)NC(=O)[C@@H](NC(=O)[C@H](CCCCNC(C)=O)NC(=O)[C@H](C)NC(=O)[C@H](CCCNC(=N)N)NC(=O)[C@@H](NC(=O)[C@H](CCCCN)NC(=O)[C@H](CCC(=O)O)NC(=O)[C@H](CCCNC(=N)N)NC(=O)CNC(=O)[C@H](CCC(=O)O)NC(=O)[C@H](CC(C)C)NC(C)=O)C(C)C)[C@@H](C)CC)C(=O)N[C@@H](CO)C(=O)N[C@H](C(=O)N[C@@](C)(Cc1ccccc1)C(=O)N[C@@H](CO)C(=O)N[C@@H](CCCNC(=N)N)C(=O)N[C@@H](CCCNC(=N)N)C(=O)N[C@@H](C)C(=O)N[C@@H](CCCCNC(C)=O)C(N)=O)[C@@H](C)O)C(=O)O)C(=O)O)C(=O)O [compound 89] (Ac-LEGREKVRAK(Ac)I[Aib][Aib]EGK([Suc-X1])ST[αMeF]SRRAK(Ac)-NH2)
1.8 | 98 | CCCCCCCCCCCCCCCC(=O)N[C@@H](CCC(=O)N[C@@H](CCC(=O)N[C@@H](CCC(=O)NCCCOCCOCCOCCCNC(=O)CCC(=O)NCCCOCCOCCOCCCNC(=O)CCC(=O)NCCCOCCOCCOCCCNC(=O)CCC(=O)NCCCC[C@H](NC(=O)CNC(=O)[C@H](CCC(=O)O)NC(=O)C(C)(C)NC(=O)C(C)(C)NC(=O)[C@@H](NC(=O)[C@H](CCCCNC(C)=O)NC(=O)[C@H](C)NC(=O)[C@H](CCCNC(=N)N)NC(=O)[C@@H](NC(=O)[C@H](CCCNC(=N)N)NC(=O)[C@H](CCC(=O)O)NC(=O)[C@H](CCCNC(=N)N)NC(=O)CNC(=O)[C@H](CCC(=O)O)NC(=O)[C@H](CC(C)C)NC(C)=O)C(C)C)[C@@H](C)CC)C(=O)N[C@@H](CO)C(=O)N[C@H](C(=O)N[C@@H](Cc1ccccc1)C(=O)N[C@@H](CO)C(=O)N[C@@](C)(CCCCN)C(=O)N[C@@H](CCCNC(=N)N)C(=O)N[C@@H](C)C(=O)N[C@@H](CCCCNC(C)=O)C(N)=O)[C@@H](C)O)C(=O)O)C(=O)O)C(=O)O [compound 27] (Ac-LEGRERVRAK(Ac)I[Aib][Aib]EGK([Suc-X1])STFS[αMeK]RAK(Ac)-NH2)
0.09 | 97 | CCCCCCCCCCCCCCCC(=O)N[C@@H](CCC(=O)N[C@@H](CCC(=O)N[C@@H](CCC(=O)NCCCOCCOCCOCCCNC(=O)CCC(=O)NCCCOCCOCCOCCCNC(=O)CCC(=O)NCCCOCCOCCOCCCNC(=O)CCC(=O)NCCCC[C@H](NC(=O)CNC(=O)[C@H](CCC(=O)O)NC(=O)C(C)(C)NC(=O)C(C)(C)NC(=O)[C@@H](NC(=O)[C@H](CCCCNC(C)=O)NC(=O)[C@H](C)NC(=O)[C@H](CCCNC(=N)N)NC(=O)[C@@H](NC(=O)[C@H](CCCNC(=N)N)NC(=O)[C@H](CCC(=O)O)NC(=O)[C@H](CCCNC(=N)N)NC(=O)CNC(=O)[C@H](CCC(=O)O)NC(=O)[C@H](CC(C)C)NC(C)=O)C(C)C)[C@@H](C)CC)C(=O)N[C@@H](CO)C(=O)N[C@H](C(=O)N[C@@H](Cc1ccc(F)cc1)C(=O)N[C@@H](CO)C(=O)NC(C)(C)C(=O)N[C@@H](CCCNC(=N)N)C(=O)N[C@@H](CCCNC(=N)N)C(=O)N[C@@H](CCCCNC(C)=O)C(N)=O)[C@@H](C)O)C(=O)O)C(=O)O)C(=O)O [compound 91] (Ac-LEGRERVRAK(Ac)I[Aib][Aib]EGK([Suc-X1])ST[Phe(4-F)]S[Aib]RRK(Ac)-NH2)
